# pKi: −log10 of the molar value.
# Key:
# [1] = molecular target: Melanin-concentrating hormone receptor 2 (Homo sapiens, UniProt Q969V1); test: Antagonist activity against human MCH2 receptor; assay type: functional
# [2] = molecular target: Melanin-concentrating hormone receptor 1 (Homo sapiens, UniProt Q99705); test: Antagonist activity against human MCH1 receptor; assay type: functional
# Melanin-concentrating hormone receptor 1, sequence (Q99705 whole entry): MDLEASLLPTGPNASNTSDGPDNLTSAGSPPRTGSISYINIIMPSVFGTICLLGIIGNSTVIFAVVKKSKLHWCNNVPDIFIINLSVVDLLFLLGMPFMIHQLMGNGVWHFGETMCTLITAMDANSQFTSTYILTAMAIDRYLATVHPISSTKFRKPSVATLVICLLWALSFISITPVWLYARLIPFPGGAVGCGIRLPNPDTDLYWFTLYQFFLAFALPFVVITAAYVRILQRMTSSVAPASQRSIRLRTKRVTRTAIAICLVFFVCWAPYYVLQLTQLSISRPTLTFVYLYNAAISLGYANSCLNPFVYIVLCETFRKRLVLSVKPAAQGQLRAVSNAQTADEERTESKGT
# Melanin-concentrating hormone receptor 2, sequence (Q969V1 whole entry): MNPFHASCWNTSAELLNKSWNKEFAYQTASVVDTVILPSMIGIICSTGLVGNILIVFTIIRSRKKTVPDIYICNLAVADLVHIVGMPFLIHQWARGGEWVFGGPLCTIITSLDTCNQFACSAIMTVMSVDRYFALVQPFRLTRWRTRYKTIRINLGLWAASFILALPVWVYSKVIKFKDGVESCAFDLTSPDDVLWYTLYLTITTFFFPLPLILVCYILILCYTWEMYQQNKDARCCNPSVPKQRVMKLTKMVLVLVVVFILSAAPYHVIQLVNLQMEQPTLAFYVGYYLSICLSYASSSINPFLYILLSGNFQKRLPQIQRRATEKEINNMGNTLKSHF
pKi [1],pKi [2],Compound
< 5.52,–,N#Cc1cccc(-c2ccc(CN(CC(=O)Nc3cc(Cl)cc(Cl)c3)C(=O)CN3CCCC3)cc2)c1
< 5.52,–,N#Cc1cccc(-c2ccc(CN(CC(=O)Nc3cc(Cl)cc(Cl)c3)C(=O)CN3CC[C@H](O)C3)cc2)c1
< 5.52,7.80,C[C@@H](c1ccc(-c2cccc(C#N)c2)cc1)N(CC(=O)Nc1cc(Cl)cc(Cl)c1)C(=O)CN1CC[C@H](O)C1
< 5.52,7.51,C[C@H](c1ccc(-c2cccc(C#N)c2)cc1)N(CC(=O)Nc1cc(Cl)cc(Cl)c1)C(=O)CN1CC[C@H](O)C1
< 5.52,7.15,N#Cc1cccc(-c2ccc(CN(CCCN3CCCC3)C(=O)Nc3ccc(F)c(C(F)(F)F)c3)cc2)c1
< 5.52,6.82,N#Cc1cccc(-c2ccc(CN(CCN3CCCC3)C(=O)Nc3cc(Cl)cc(Cl)c3)cc2)c1
< 5.52,7.32,N#Cc1cccc(-c2ccc(CN(CCCN3CCCC3)C(=O)Nc3ccc(F)c(Cl)c3)cc2)c1
< 5.52,–,N#Cc1cccc(-c2ccc(CCN(CC(=O)Nc3cc(Cl)cc(Cl)c3)C(=O)CN3CCCC3)cc2)c1
< 5.52,–,N#Cc1cccc(-c2ccc(CCN(CC(=O)Nc3cc(Cl)cc(Cl)c3)C(=O)CCN3CC[C@H](O)C3)cc2)c1
< 5.52,–,N#Cc1cccc(-c2ccc(CN(CC(=O)Nc3cc(Cl)cc(Cl)c3)C(=O)CCN3CCCC3)cc2)c1
< 5.52,6.88,CC(C)(c1ccc(-c2cccc(C#N)c2)cc1)N(CC(=O)Nc1cc(Cl)cc(Cl)c1)C(=O)CN1CCCC1
< 5.52,–,N#Cc1cccc(-c2ccc(CCN(CC(=O)Nc3cc(Cl)cc(Cl)c3)C(=O)CN3CC[C@@H](O)C3)cc2)c1
< 5.52,7.64,C[C@H](c1ccc(-c2cccc(C#N)c2)cc1)N(CC(=O)Nc1cc(Cl)cc(Cl)c1)C(=O)CCN1CC[C@H](O)C1
< 5.52,7.74,C[C@@H](c1ccc(-c2cccc(C#N)c2)cc1)N(CC(=O)Nc1cc(Cl)cc(Cl)c1)C(=O)CCN1CC[C@H](O)C1
< 5.52,6.80,N#Cc1cccc(-c2ccc(CN(CCN3CCCC3)C(=O)Nc3ccc(F)c(C(F)(F)F)c3)cc2)c1
< 5.52,–,N#Cc1cccc(-c2ccc(CCN(CC(=O)Nc3cc(Cl)cc(Cl)c3)C(=O)CCN3CCCC3)cc2)c1
< 5.52,–,N#Cc1cccc(-c2ccc(CCN(CC(=O)Nc3cc(Cl)cc(Cl)c3)C(=O)CCN3CC[C@@H](O)C3)cc2)c1
< 5.52,7.12,C[C@H](c1ccc(-c2cccc(C#N)c2)cc1)N(CC(=O)Nc1cc(Cl)cc(Cl)c1)C(=O)CCCN1CC[C@H](O)C1
< 5.52,–,N#Cc1cccc(-c2ccc(CCN(CC(=O)Nc3cc(Cl)cc(Cl)c3)C(=O)CN3CC[C@H](O)C3)cc2)c1
< 5.52,–,CC(=O)N[C@@H]1CCN(CC(=O)N(CCc2ccc(-c3cccc(C#N)c3)cc2)CC(=O)Nc2cc(Cl)cc(Cl)c2)C1
< 5.52,7.32,N#Cc1cccc(-c2ccc(CN(CCCN3CCCC3)C(=O)Nc3cc(Cl)cc(Cl)c3)cc2)c1
< 5.52,6.54,N#Cc1cccc(-c2ccc(CN(CCN3CCCC3)C(=O)Nc3ccc(F)c(Cl)c3)cc2)c1
< 5.52,–,N#Cc1cccc(-c2ccc(CN(CC(=O)Nc3cc(Cl)cc(Cl)c3)C(=O)CN3CC[C@@H](O)C3)cc2)c1

# Reference: ChEMBL document CHEMBL1141941, “Biaryl diamides as potent melanin concentrating hormone receptor 1 antagonists” (Bioorg Med Chem Lett, 2005)
